Experimental findings from ChEMBL document CHEMBL3627672, “Structure-activity relationship study of syringolin A as a potential anticancer agent” (Bioorg Med Chem Lett, 2015) are described below.

The structures appear in SMILES notation.

One assay has as its system A-431. Nature of the assay: Antiproliferative activity against human A431 cells after 72 hrs by oxyluciferin luminescence assay. The note with it: A-431, 72 h.
The subject of the next assay is HCT-116. Kind of assay: Antiproliferative activity against human HCT116 cells after 72 hrs by oxyluciferin luminescence assay. The note with it: HCT-116, 72 h.
The next assay concerns RKO. Nature of the assay: Antiproliferative activity against human RKO cells after 72 hrs by oxyluciferin luminescence assay.
Assay [1] is described as follows: Antiproliferative activity against human TOV21G cells after 72 hrs by oxyluciferin luminescence assay.
In a further assay the test system is CCRF-CEM. Nature of the assay: Antiproliferative activity against human CCRF-CEM cells after 72 hrs by oxyluciferin luminescence assay.
Assay [2] can be described thus: Antiproliferative activity against human RPMI8266 cells after 72 hrs by oxyluciferin luminescence assay. Conditions: RPMI8266, 72 h.

As usually defined, the IC50 is the concentration that gives 50% inhibition. A low value points to greater potency. In the case of `CCCCCCCCCC(=O)N[C@@H](CCc1ccccc1)C(=O)N[C@H]1/C=C/CCNC(=O)/C=C/[C@H](C(C)C)NC1=O`, the IC50 in the assay with A-431 was 16.8 nM; with HCT-116, 28.4 nM; in the assay with RKO, 27 nM; in assay [1] it was 9.6 nM; with CCRF-CEM, 11.6 nM; in assay [2] it was 14.9 nM.
With `CCCCCCCCCC(=O)N[C@@H](Cc1c[nH]c2ccccc12)C(=O)N[C@H]1/C=C/CCNC(=O)/C=C/[C@H](C(C)C)NC1=O`, the IC50 in the assay with A-431 is 45.5 nM; in the assay on HCT-116, 44.5 nM; in the assay on RKO, 39.4 nM; in assay [1] it was 13.5 nM; in the assay with CCRF-CEM, 16.8 nM; in assay [2], 27.5 nM.
Consider `CCCCCCCCCC(=O)N[C@@H](Cc1cccc(F)c1)C(=O)N[C@H]1/C=C/CCNC(=O)/C=C/[C@H](C(C)C)NC1=O`, for which the IC50 is 27.7 nM with A-431; 15 nM in the assay with HCT-116; 11.8 nM with RKO; 21.1 nM in assay [1]; 5.5 nM with CCRF-CEM; 8.8 nM in assay [2].
As for `CCCCCCCCCC(=O)N[C@@H](Cc1ccc(Cl)cc1)C(=O)N[C@H]1/C=C/CCNC(=O)/C=C/[C@H](C(C)C)NC1=O`, the IC50 is 23.3 nM in the assay with A-431; 21.7 nM in the assay on HCT-116; 19.6 nM in the assay on RKO; 12.3 nM in assay [1]; 4.5 nM with CCRF-CEM; 12 nM in assay [2].
Regarding `CCCCCCCCCC(=O)N[C@@H](Cc1ccco1)C(=O)N[C@H]1/C=C/CCNC(=O)/C=C/[C@H](C(C)C)NC1=O`, the IC50 in the assay on A-431 is 29.7 nM; in the assay on HCT-116 it was 26.7 nM; in the assay on RKO it was 20.1 nM; in assay [1], 22.3 nM; with CCRF-CEM, 24.9 nM; in assay [2] it was 24.1 nM.
Take `CC(C)C[C@H](NC(=O)[C@H](Cc1ccccc1)NC(=O)c1cnccn1)B(O)O` [BORTEZOMIB]: the IC50 in the assay with A-431 was found to be 28.2 nM; with HCT-116, 27 nM; with RKO, 20.8 nM; in assay [1] it was 16.7 nM; in the assay with CCRF-CEM, 11 nM; in assay [2], 14.4 nM.
On to `CCCCCCCCCC(=O)N[C@@H](Cc1ccc(F)cc1)C(=O)N[C@H]1/C=C/CCNC(=O)/C=C/[C@H](C(C)C)NC1=O`, for which the IC50 is 33.2 nM with A-431; 23.1 nM in the assay with HCT-116; 14.8 nM in the assay on RKO; 19 nM in assay [1]; 4.9 nM in the assay on CCRF-CEM; 8.6 nM in assay [2].
Take `CCCCCCCCCC(=O)N[C@@H](Cc1ccccc1Br)C(=O)N[C@H]1/C=C/CCNC(=O)/C=C/[C@H](C(C)C)NC1=O`: the IC50 in the assay with A-431 turned out to be 13.4 nM; with HCT-116, 13.4 nM; in the assay with RKO, 13 nM; in assay [1], 9.6 nM; in the assay on CCRF-CEM, 3.9 nM; in assay [2] it was 9.4 nM.
For `CCCCCCCCCC(=O)N[C@H](C(=O)N[C@H]1/C=C/CCNC(=O)/C=C/[C@H](C(C)C)NC1=O)c1ccccc1`, the IC50 in the assay on A-431 came to 27.8 nM; in the assay with HCT-116, 45.1 nM; with RKO, 20.8 nM; in assay [1], 9.5 nM; in the assay with CCRF-CEM, 11 nM; in assay [2], 26.9 nM.
On to `CCCCCCCCCCCC(=O)N[C@@H](Cc1ccccc1)C(=O)N[C@H]1/C=C/CCNC(=O)/C=C/[C@H](C(C)C)NC1=O`, for which the IC50 turned out to be 44.8 nM in the assay with A-431; 37.4 nM with HCT-116; 33.6 nM in the assay on RKO; 27.5 nM in assay [1]; 14.8 nM in the assay on CCRF-CEM; 29.6 nM in assay [2].
For the molecule `CCCCCCCCCCCCC(=O)N[C@@H](Cc1ccccc1)C(=O)N[C@H]1/C=C/CCNC(=O)/C=C/[C@H](C(C)C)NC1=O`, the IC50 with A-431 was found to be 82.2 nM; with HCT-116, 73.9 nM; in the assay on RKO it was 49.8 nM; in assay [1], 48.3 nM; with CCRF-CEM, 36.9 nM; in assay [2], 88.3 nM.
`CCCCCCCCCC(=O)N[C@@H](Cc1cccc2ccccc12)C(=O)N[C@H]1/C=C/CCNC(=O)/C=C/[C@H](C(C)C)NC1=O`: the IC50 with A-431 came to 29.3 nM; in the assay with HCT-116 it was 31 nM; in the assay on RKO it was 31.3 nM; in assay [1] it was 13.2 nM; with CCRF-CEM, 1.5 nM; in assay [2], 7.4 nM.
For `CCCCCCCCCC(=O)N[C@@H](Cc1cccc(Br)c1)C(=O)N[C@H]1/C=C/CCNC(=O)/C=C/[C@H](C(C)C)NC1=O`, the IC50 with A-431 turned out to be 15.5 nM; in the assay with HCT-116, 18 nM; in the assay with RKO it was 16.3 nM; in assay [1], 12.8 nM; in the assay on CCRF-CEM, 4.6 nM; in assay [2], 9.6 nM.
For the molecule `CCCCCCCCCC(=O)N[C@@H](Cc1ccccc1C)C(=O)N[C@H]1/C=C/CCNC(=O)/C=C/[C@H](C(C)C)NC1=O`, the 50% inhibitory concentration (IC50) in the assay with A-431 is 8.9 nM; with HCT-116, 12 nM; with RKO, 9.5 nM; in assay [1], 6.2 nM; in the assay on CCRF-CEM it was 3.6 nM; in assay [2], 8.8 nM.
On to `CCCCCCCCCC(=O)N[C@@H](Cc1ccc(O)cc1)C(=O)N[C@H]1/C=C/CCNC(=O)/C=C/[C@H](C(C)C)NC1=O`, for which the IC50 in the assay with A-431 amounted to 134 nM; with HCT-116 it was 68.5 nM; in the assay on RKO, 43.7 nM; in assay [1] it was 151 nM; in the assay on CCRF-CEM, 32.3 nM; in assay [2], 28.3 nM.
As for `CCCCCCCCCC(=O)N[C@@H](CCCc1ccccc1)C(=O)N[C@H]1/C=C/CCNC(=O)/C=C/[C@H](C(C)C)NC1=O`, the half-inhibitory concentration (IC50) in the assay with A-431 amounted to 31.7 nM; in the assay with HCT-116 it was 40.6 nM; with RKO, 39.8 nM; in assay [1], 8.5 nM; with CCRF-CEM it was 9.4 nM; in assay [2], 23.5 nM.
On to `CCCCCCCCCC(=O)N[C@@H](Cc1cccc(C)c1)C(=O)N[C@H]1/C=C/CCNC(=O)/C=C/[C@H](C(C)C)NC1=O`, for which the IC50 was determined as 6.9 nM in the assay on A-431; 7 nM in the assay with HCT-116; 7.3 nM in the assay on RKO; 6.2 nM in assay [1]; 3.5 nM in the assay on CCRF-CEM; 8.4 nM in assay [2].
Take `CCCCCCCCCC(=O)N[C@@H](Cc1ccc(Br)cc1)C(=O)N[C@H]1/C=C/CCNC(=O)/C=C/[C@H](C(C)C)NC1=O`: the IC50 in the assay with A-431 came to 25.6 nM; with HCT-116, 33.4 nM; in the assay with RKO it was 33.7 nM; in assay [1], 24.1 nM; in the assay on CCRF-CEM, 18.4 nM; in assay [2], 28.3 nM.
Turning to `CCCCCCCCCC(=O)N[C@@H](Cc1ccc(C)cc1)C(=O)N[C@H]1/C=C/CCNC(=O)/C=C/[C@H](C(C)C)NC1=O`, the IC50 in the assay with A-431 came to 18.9 nM; in the assay with HCT-116, 28.1 nM; with RKO, 15.5 nM; in assay [1], 9.1 nM; in the assay with CCRF-CEM, 1.9 nM; in assay [2], 4.8 nM.
In the case of `CCCCCC(=O)N[C@@H](Cc1ccccc1)C(=O)N[C@H]1/C=C/CCNC(=O)/C=C/[C@H](C(C)C)NC1=O`, the IC50 turned out to be 128 nM in the assay with A-431; 61.4 nM in the assay with HCT-116; 52.6 nM with RKO; 131 nM in assay [1]; 28.6 nM with CCRF-CEM; 42.6 nM in assay [2].
As for `CCCCCCCCCC(=O)N[C@@H](Cc1ccccn1)C(=O)N[C@H]1/C=C/CCNC(=O)/C=C/[C@H](C(C)C)NC1=O`, the IC50 in the assay with A-431 amounted to 23.5 nM; with HCT-116, 19.2 nM; with RKO it was 18.2 nM; in assay [1], 10.7 nM; in the assay with CCRF-CEM, 8.6 nM; in assay [2] it was 15 nM.
`CCCCCCCCCC(=O)N[C@@H](Cc1cccs1)C(=O)N[C@H]1/C=C/CCNC(=O)/C=C/[C@H](C(C)C)NC1=O`: the IC50 worked out at 18.7 nM with A-431; 15.5 nM with HCT-116; 20.8 nM in the assay with RKO; 16.7 nM in assay [1]; 11 nM in the assay with CCRF-CEM; 14.4 nM in assay [2].
For the molecule `CCCCCCCCCCCCCC(=O)N[C@@H](Cc1ccccc1)C(=O)N[C@H]1/C=C/CCNC(=O)/C=C/[C@H](C(C)C)NC1=O`, the IC50 was 430 nM in the assay on A-431; 413 nM with HCT-116; 470 nM in the assay on RKO; 425 nM in assay [1]; 409 nM in the assay on CCRF-CEM; 735 nM in assay [2].
For the molecule `CCCCCCCCCC(=O)N[C@@H](Cc1ccccc1F)C(=O)N[C@H]1/C=C/CCNC(=O)/C=C/[C@H](C(C)C)NC1=O`, the IC50 stood at 14.9 nM with A-431; 7.1 nM in the assay on HCT-116; 6.8 nM in the assay with RKO; 8.2 nM in assay [1]; 3.3 nM in the assay on CCRF-CEM; 5.6 nM in assay [2].
For `CCCCCCCCCC(=O)N[C@@H](Cc1cccnc1)C(=O)N[C@H]1/C=C/CCNC(=O)/C=C/[C@H](C(C)C)NC1=O`, the IC50 with A-431 came out at 24.4 nM; with HCT-116, 29.4 nM; in the assay with RKO, 17.1 nM; in assay [1], 5.1 nM; with CCRF-CEM, 27.5 nM; in assay [2] it was 15.5 nM.
Take `CCCCCCCCCC(=O)N1CCC[C@]1(Cc1ccccc1)C(=O)N[C@H]1/C=C/CCNC(=O)/C=C/[C@H](C(C)C)NC1=O`: the IC50 (with A-431; in the assay with HCT-116; in the assay with RKO; in assay [1]; in the assay with CCRF-CEM; in assay [2]) was over 1000 nM throughout.
With `CCCCCCCCCC(=O)N[C@@H](Cc1ccc2ccccc2c1)C(=O)N[C@H]1/C=C/CCNC(=O)/C=C/[C@H](C(C)C)NC1=O`, the IC50 in the assay on A-431 was 17.8 nM; in the assay with HCT-116, 18.5 nM; in the assay on RKO it was 15.2 nM; in assay [1], 14.1 nM; in the assay with CCRF-CEM, 5 nM; in assay [2], 10.9 nM.
With `CCCCCCCCCC(=O)N(C)[C@@H](Cc1ccccc1)C(=O)N[C@H]1/C=C/CCNC(=O)/C=C/[C@H](C(C)C)NC1=O`, the IC50 in the assay with A-431 was over 1000 nM; in the assay with HCT-116 it was over 1000 nM; in the assay on RKO, over 1000 nM; in assay [1], over 1000 nM; in the assay with CCRF-CEM it was 197 nM; in assay [2] it was over 1000 nM.
